From ChEMBL document CHEMBL3885861, “Open TG-GATES”

Species on record: Rattus norvegicus
Assay: Open TG-GATES - Regimen: Single
Type: toxicity, organism-based, Sprague-Dawley
Parameters: regimen Single, gender Male, age 6 weeks
Conditions: in vivo, po, 0 mg/kg, route gavage, dose level Control; for APTT / Bas / Eos / Fbg / Hb / Ht / Lym / MCH / MCHC / MCV / Mono / Neu / PT / Plat / RBC / Ret / WBC: tissue Blood; for KIDNEY_L / KIDNEY_R / KIDNEY_TOTAL: tissue Kidney; for LIVER: tissue Liver; for A/G / ALP / ALT / AST / BUN / CRE / Ca / Cl / DBIL / GLC / IP / K / LDH / Na / PL / RALB / TBIL / TC / TG / TP / gamma-GTP: tissue Plasma

SMILES: Brc1ccccc1 [BROMOBENZENE]
- TERMINAL_BW (3 h): 190.9 g
- APTT (3 h): 15.7 s
- Bas (3 h): 0.2%
- Eos (3 h): 0.8%
- Fbg (3 h): 247.4 mg/dL
- Hb (3 h): 13.1 g/dL
- Ht (3 h): 39.4%
- Lym (3 h): 72.8%
- MCH (3 h): 21.2 pg
- MCHC (3 h): 33.2%
- MCV (3 h): 63.8 fL
- Mono (3 h): 4.2%
- Neu (3 h): 21.6%
- PT (3 h): 12.4 s
- Plat (3 h): 117.7 x10_4/uL
- RBC (3 h): 618.4 x10_4/ul
- Ret (3 h): 9.8%
- WBC (3 h): 108.2 x10_2/uL
- KIDNEY_L (3 h): 0.9 g
- KIDNEY_R (3 h): 0.8 g
- KIDNEY_TOTAL (3 h): 1.7 g
- LIVER (3 h): 8.1 g
- A/G (3 h): 0.9
- ALP (3 h): 1539.4 IU/L
- ALT (3 h): 46.2 IU/L
- AST (3 h): 83.2 IU/L
- BUN (3 h): 10.2 mg/dL
- CRE (3 h): 0.2 mg/dL
- Ca (3 h): 11.2 mg/dL
- Cl (3 h): 106.2 meq/L
- DBIL (3 h): 0.022 mg/dL
- GLC (3 h): 186.4 mg/dL
- IP (3 h): 9.4 mg/dL
- K (3 h): 3.8 meq/L
- LDH (3 h): 84.2 IU/L
- Na (3 h): 141.6 meq/L
- PL (3 h): 159.2 mg/dL
- RALB (3 h): 2.6 g/dL
- TBIL (3 h): 0.058 mg/dL
- TC (3 h): 83.6 mg/dL
- TG (3 h): 88.4 mg/dL
- TP (3 h): 5.5 g/dL
- gamma-GTP (3 h): 2 IU/L
- TERMINAL_BW (6 h): 191.8 g
- APTT (6 h): 15.7 s
- Bas (6 h): 0%
- Eos (6 h): 1%
- Fbg (6 h): 276.2 mg/dL
- Hb (6 h): 13 g/dL
- Ht (6 h): 39.1%
- Lym (6 h): 75.8%
- MCH (6 h): 21.4 pg
- MCHC (6 h): 33.3%
- MCV (6 h): 64.3 fL
- Mono (6 h): 3.8%
- Neu (6 h): 19.2%
- PT (6 h): 12.4 s
- Plat (6 h): 109.8 x10_4/uL
- RBC (6 h): 608.2 x10_4/ul
- Ret (6 h): 9.3%
- WBC (6 h): 92.3 x10_2/uL
- KIDNEY_L (6 h): 0.8 g
- KIDNEY_R (6 h): 0.8 g
- KIDNEY_TOTAL (6 h): 1.6 g
- LIVER (6 h): 7.6 g
- A/G (6 h): 0.9
- ALP (6 h): 1707 IU/L
- ALT (6 h): 40.8 IU/L
- AST (6 h): 76.6 IU/L
- BUN (6 h): 9.2 mg/dL
- CRE (6 h): 0.2 mg/dL
- Ca (6 h): 11 mg/dL
- Cl (6 h): 107.4 meq/L
- DBIL (6 h): 0.01 mg/dL
- GLC (6 h): 184.2 mg/dL
- IP (6 h): 10 mg/dL
- K (6 h): 4 meq/L
- LDH (6 h): 69.6 IU/L
- Na (6 h): 141.4 meq/L
- PL (6 h): 149.2 mg/dL
- RALB (6 h): 2.6 g/dL
- TBIL (6 h): 0.054 mg/dL
- TC (6 h): 83.2 mg/dL
- TG (6 h): 37.8 mg/dL
- TP (6 h): 5.5 g/dL
- gamma-GTP (6 h): 1.2 IU/L
- TERMINAL_BW (9 h): 191.1 g
- APTT (9 h): 15.4 s
- Bas (9 h): 0%
- Eos (9 h): 1%
- Fbg (9 h): 258.4 mg/dL
- Hb (9 h): 12.9 g/dL
- Ht (9 h): 38.8%
- Lym (9 h): 74.8%
- MCH (9 h): 21.5 pg
- MCHC (9 h): 33.4%
- MCV (9 h): 64.4 fL
- Mono (9 h): 3%
- Neu (9 h): 21.2%
- PT (9 h): 12.3 s
- Plat (9 h): 120.5 x10_4/uL
- RBC (9 h): 603 x10_4/ul
- Ret (9 h): 9.6%
- WBC (9 h): 75.5 x10_2/uL
- KIDNEY_L (9 h): 0.8 g
- KIDNEY_R (9 h): 0.8 g
- KIDNEY_TOTAL (9 h): 1.6 g
- LIVER (9 h): 7.4 g
- A/G (9 h): 0.9
- ALP (9 h): 1515.4 IU/L
- ALT (9 h): 36.2 IU/L
- AST (9 h): 70.2 IU/L
- BUN (9 h): 11.4 mg/dL
- CRE (9 h): 0.2 mg/dL
- Ca (9 h): 10.8 mg/dL
- Cl (9 h): 105.8 meq/L
- DBIL (9 h): 0.006 mg/dL
- GLC (9 h): 193.4 mg/dL
- IP (9 h): 11.8 mg/dL
- K (9 h): 3.6 meq/L
- LDH (9 h): 81.2 IU/L
- Na (9 h): 143.2 meq/L
- PL (9 h): 146.8 mg/dL
- RALB (9 h): 2.6 g/dL
- TBIL (9 h): 0.052 mg/dL
- TC (9 h): 84.2 mg/dL
- TG (9 h): 39.6 mg/dL
- TP (9 h): 5.6 g/dL
- gamma-GTP (9 h): 1.4 IU/L
- TERMINAL_BW (24 h): 196.6 g
- APTT (24 h): 15.4 s
- Bas (24 h): 0%
- Eos (24 h): 1%
- Fbg (24 h): 270.2 mg/dL
- Hb (24 h): 12.6 g/dL
- Ht (24 h): 37.4%
- Lym (24 h): 74.6%
- MCH (24 h): 21.1 pg
- MCHC (24 h): 33.8%
- MCV (24 h): 62.6 fL
- Mono (24 h): 3.4%
- Neu (24 h): 19.8%
- PT (24 h): 12.3 s
- Plat (24 h): 114.7 x10_4/uL
- RBC (24 h): 598.2 x10_4/ul
- Ret (24 h): 8.1%
- WBC (24 h): 81.7 x10_2/uL
- KIDNEY_L (24 h): 0.8 g
- KIDNEY_R (24 h): 0.8 g
- KIDNEY_TOTAL (24 h): 1.7 g
- LIVER (24 h): 8.7 g
- A/G (24 h): 0.9
- ALP (24 h): 1600.6 IU/L
- ALT (24 h): 50.8 IU/L
- AST (24 h): 79.6 IU/L
- BUN (24 h): 14.2 mg/dL
- CRE (24 h): 0.2 mg/dL
- Ca (24 h): 10.5 mg/dL
- Cl (24 h): 105.2 meq/L
- DBIL (24 h): 0.004 mg/dL
- GLC (24 h): 187.4 mg/dL
- IP (24 h): 8 mg/dL
- K (24 h): 4.2 meq/L
- LDH (24 h): 114.4 IU/L
- Na (24 h): 141.4 meq/L
- PL (24 h): 136.8 mg/dL
- RALB (24 h): 2.6 g/dL
- TBIL (24 h): 0.04 mg/dL
- TC (24 h): 76.8 mg/dL
- TG (24 h): 55.4 mg/dL
- TP (24 h): 5.5 g/dL
- gamma-GTP (24 h): 1.4 IU/L
